In publication PMC3705312, “Extracts, Anthocyanins and Procyanidins from Aronia melanocarpa as Radical Scavengers and Enzyme Inhibitors” (Nutrients, 2013):
Like-named read-outs stand apart in the source and are kept apart here.

Columns and labels:
[1] = Scavenging of the diphenylpicrylhydrazyl (DPPH) radical; conditions: average ± SD; for DPPH IC50 (concentration to give 50% scavenging): 5 min reaction, A517, values marked #, triplicate; for DPPH % scavenging at 10.4 µg/mL: sample concentration 10.4 µg/mL, 5 min, values marked ^
Experimental: Scavenging activity towards the DPPH radical was carried out as previously described [18]. Briefly, to 2.95 mL of a methanolic solution of DPPH (A517 1.0), 50 µL of the test compound (dissolved in DMSO or MeOH) was added. The mixture was stirred, and the decrease in UV absorbance at 517 nm was measured over a period of 5 min. Percent radical scavenging was calculated as 100 × (Astart − Aend)/(Astart), where Astart is the absorbance before addition of the test compound and Aend is the absorbance value after 5 min of reaction time. Values were corrected for absorbance of the test substances.

15-LO from soybeans = target: T1, 15-LO from soybeans (Glycine max, UniProt P08170); assay: Inhibition of 15-lipoxygenase (15-LO); assay type: biochemical, soybean; conditions: borate buffer pH 9.00, average ± SD, triplicate
T1 construct: purchased Sigma-Aldrich
T1 sequence (P08170 1-839): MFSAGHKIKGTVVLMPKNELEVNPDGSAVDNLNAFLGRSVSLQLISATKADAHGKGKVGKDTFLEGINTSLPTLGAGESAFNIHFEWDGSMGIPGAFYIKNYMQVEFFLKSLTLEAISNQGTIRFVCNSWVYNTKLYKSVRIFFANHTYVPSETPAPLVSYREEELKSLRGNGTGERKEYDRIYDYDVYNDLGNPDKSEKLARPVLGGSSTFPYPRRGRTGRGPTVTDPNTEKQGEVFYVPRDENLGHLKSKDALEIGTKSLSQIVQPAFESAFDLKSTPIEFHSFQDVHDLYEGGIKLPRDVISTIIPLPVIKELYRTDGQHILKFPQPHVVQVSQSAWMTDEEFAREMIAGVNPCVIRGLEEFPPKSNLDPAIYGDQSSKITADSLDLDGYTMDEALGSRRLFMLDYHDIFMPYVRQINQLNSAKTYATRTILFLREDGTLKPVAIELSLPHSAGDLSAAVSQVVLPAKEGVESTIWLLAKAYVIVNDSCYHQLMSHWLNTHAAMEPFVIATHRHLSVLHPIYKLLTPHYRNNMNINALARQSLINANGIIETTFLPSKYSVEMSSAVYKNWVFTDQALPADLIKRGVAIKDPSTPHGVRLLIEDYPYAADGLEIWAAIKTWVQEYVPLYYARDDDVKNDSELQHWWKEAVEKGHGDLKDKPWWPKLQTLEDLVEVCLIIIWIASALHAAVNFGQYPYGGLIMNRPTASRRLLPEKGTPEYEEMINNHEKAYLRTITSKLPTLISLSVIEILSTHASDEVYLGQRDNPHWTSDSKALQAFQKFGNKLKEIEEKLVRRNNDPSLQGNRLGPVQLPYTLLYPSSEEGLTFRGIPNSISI

XO from bovine milk = target: T2, XO from bovine milk (Bos taurus, UniProt P80457); assay: Inhibition of xanthine oxidase (XO), hypoxanthine as substrate; assay type: biochemical; conditions: average ± SD
T2 construct: purchased Sigma-Aldrich; host or cells: bovine milk
Experimental: (§1) Procyanidin B2 and B5 reference compounds were obtained from Plant Polyphenols LLC (Boyce, LA, USA). All other reagents were of the highest purity available.
The XO inhibitory activity with hypoxanthine as the substrate was measured spectrophotometrically based on the procedure of Noro et al., with some modifications. The assay mixture consisting of 50 µL of test compound (dissolved in DMSO or MeOH) or (for blanks) DMSO or MeOH alone, 1.85 mL of 50 mM sodium-potassium phosphate buffer (pH = 7.5) and 100 µL of enzyme solution (1.8 U/mL in 50 mM sodium-potassium phosphate buffer, pH = 7.5) was prepared immediately before use. Substrate solution (1.0 mL, 20 µg/mL hypoxanthine in distilled water) was added. The mixture was stirred, and the increase in absorbance at 290 nm was measured over a period of 5 min. Percent enzyme inhibition was calculated as 100 × [(∆A1 − ∆A2)/∆A1], where ∆A1 and ∆A2 are values for the increase in A290 for the sample without test substance and with test substance, respectively.

[2] = target: T3, α-glucosidase from baker's yeast (Saccharomyces cerevisiae, UniProt P53341); assay: biochemical; conditions: 15 min, pH 7.0, average ± SD, triplicate
T3 construct: purchased Sigma-Aldrich
Experimental: as §1
The α-glucosidase inhibitory activity was determined by a slight modification of the procedure reported by Matsui et al.. The enzyme solution was set at 800 mU/mL of α-glucosidase in a 50 mM phosphate buffer (pH = 7.0) containing 100 mM sodium chloride. For each assay, 20 µL of the test solution in DMSO or MeOH and 80 µL of the enzyme solution were preincubated at 37 °C for 5 min. The reaction was started by adding 1.9 mL of substrate solution (0.7 mM PNP-G in the buffer), and the solution was then incubated at 37 °C for 15 min. After the reaction had been stopped by adding 2.0 mL of a 0.5 M Tris solution, the absorbance of PNP released from PNP-G at 400 nm was measured. Percent enzyme inhibition was calculated as 100 × (AB − AS)/(AB), where AB and AS represent the absorbance of the blank and sample, respectively.

[3] = linoleic acid 134 µM, read-out: 15-Lipoxygenase IC50 (converted)
[4] = read-out: Xanthine oxidase % inhibition at a concentration of 42 µg/mL, 42 µg/mL
[5] = 37 °C, read-out: α-Glucosidase IC50 (converted)

T2 sequence (P80457 whole entry): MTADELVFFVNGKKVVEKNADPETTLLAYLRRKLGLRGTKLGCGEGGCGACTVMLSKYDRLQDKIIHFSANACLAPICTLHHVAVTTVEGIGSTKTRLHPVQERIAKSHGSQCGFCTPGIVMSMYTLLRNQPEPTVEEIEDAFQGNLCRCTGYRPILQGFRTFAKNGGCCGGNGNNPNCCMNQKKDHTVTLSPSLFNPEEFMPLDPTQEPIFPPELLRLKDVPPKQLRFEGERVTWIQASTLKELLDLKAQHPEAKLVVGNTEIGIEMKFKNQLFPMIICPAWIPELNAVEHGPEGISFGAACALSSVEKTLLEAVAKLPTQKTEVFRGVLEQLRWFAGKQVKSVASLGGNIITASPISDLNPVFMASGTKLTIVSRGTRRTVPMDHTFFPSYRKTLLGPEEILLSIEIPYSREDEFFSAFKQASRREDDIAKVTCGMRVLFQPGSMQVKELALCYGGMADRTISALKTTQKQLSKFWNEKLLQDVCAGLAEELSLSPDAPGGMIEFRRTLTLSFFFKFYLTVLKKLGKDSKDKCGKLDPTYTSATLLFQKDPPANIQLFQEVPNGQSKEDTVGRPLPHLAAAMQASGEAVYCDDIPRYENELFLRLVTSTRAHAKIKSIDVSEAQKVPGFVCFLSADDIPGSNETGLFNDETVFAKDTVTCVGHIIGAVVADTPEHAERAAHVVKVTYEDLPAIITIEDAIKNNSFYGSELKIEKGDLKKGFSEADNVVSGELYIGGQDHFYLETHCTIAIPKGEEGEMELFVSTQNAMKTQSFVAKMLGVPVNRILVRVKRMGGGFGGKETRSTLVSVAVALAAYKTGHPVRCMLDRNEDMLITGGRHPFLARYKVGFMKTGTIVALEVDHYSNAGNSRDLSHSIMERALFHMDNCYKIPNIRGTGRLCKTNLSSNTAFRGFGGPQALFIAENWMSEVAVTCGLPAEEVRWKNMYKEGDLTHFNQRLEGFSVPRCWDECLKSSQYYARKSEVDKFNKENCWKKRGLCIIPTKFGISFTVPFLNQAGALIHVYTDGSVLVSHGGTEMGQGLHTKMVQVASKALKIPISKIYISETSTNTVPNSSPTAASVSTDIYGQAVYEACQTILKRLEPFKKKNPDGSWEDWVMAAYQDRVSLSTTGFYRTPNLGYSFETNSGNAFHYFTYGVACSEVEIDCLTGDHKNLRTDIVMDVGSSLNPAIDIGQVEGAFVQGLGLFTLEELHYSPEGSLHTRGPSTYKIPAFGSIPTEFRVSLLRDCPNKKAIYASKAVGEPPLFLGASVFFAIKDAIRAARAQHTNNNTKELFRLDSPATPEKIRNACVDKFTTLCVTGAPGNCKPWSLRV
T3 sequence (P53341 whole entry): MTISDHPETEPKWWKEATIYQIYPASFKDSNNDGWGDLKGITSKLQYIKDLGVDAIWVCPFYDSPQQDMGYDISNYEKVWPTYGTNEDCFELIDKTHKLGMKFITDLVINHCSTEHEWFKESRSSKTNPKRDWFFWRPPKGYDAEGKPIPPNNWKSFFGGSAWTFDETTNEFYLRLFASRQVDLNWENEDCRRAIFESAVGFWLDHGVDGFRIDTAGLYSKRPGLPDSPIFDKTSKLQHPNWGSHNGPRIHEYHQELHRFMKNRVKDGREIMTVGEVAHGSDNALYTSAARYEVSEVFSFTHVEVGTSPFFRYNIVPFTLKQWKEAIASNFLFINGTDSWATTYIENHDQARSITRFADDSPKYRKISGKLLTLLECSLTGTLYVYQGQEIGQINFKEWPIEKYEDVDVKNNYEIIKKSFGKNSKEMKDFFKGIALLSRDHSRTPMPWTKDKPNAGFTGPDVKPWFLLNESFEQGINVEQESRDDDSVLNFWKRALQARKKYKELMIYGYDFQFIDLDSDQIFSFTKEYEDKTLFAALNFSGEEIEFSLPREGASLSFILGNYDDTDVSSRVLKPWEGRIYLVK

SMILES | DPPH IC50 (concentration to give 50% scavenging) [1] | IC50 (15-LO from soybeans; [3]) | inhibition at 42 µg/mL (XO from bovine milk; [4]) | IC50 ([2]; α-Glucosidase IC50, 37 °C) | DPPH % scavenging at 10.4 µg/mL [1] | Xanthine oxidase % inhibition at a concentration of 17 µg/mL (XO from bovine milk) | IC50 [2, 5] | IC50 (15-LO from soybeans; 15-Lipoxygenase IC50, linoleic acid 134 µM) | inhibition at 42 µg/mL (XO from bovine milk; 42 µg/mL, read-out: Xanthine oxidase % inhibition at a concentration of 42 µg/mL) | inhibition at 17 µg/mL (XO from bovine milk; read-out: Xanthine oxidase % inhibition at a concentration of 17 µg/mL, 17 µg/mL)
Oc1cc(O)c2c(c1)O[C@H](c1ccc(O)c(O)c1)[C@H](O)[C@H]2c1c(O)cc(O)c2c1O[C@H](c1ccc(O)c(O)c1)[C@H](O)[C@H]2c1c(O)cc(O)c2c1O[C@H](c1ccc(O)c(O)c1)[C@H](O)C2 [Compound 7, epi-(4β→8)-epi-(4β→8)-epi (C1)] | 3.2 ± 0.1 ^# µg/mL | 66.5 µM | 15.5 ± 1.5% | 4.38 µM |  |  |  |  |  | 
Oc1cc(O)c2cc(OC3OCC(O)C(O)C3O)c(-c3ccc(O)c(O)c3)[o+]c2c1 (centres unmarked) [Compound 4, cyanidin 3-xyloside] |  | > 198 µM |  |  | 25.0 ± 5.0 ^^ % | 11.4 ± 2.8% | 13.1 µM |  |  | 
OCC1OC(Oc2cc3c(O)cc(O)cc3[o+]c2-c2ccc(O)c(O)c2)C(O)C(O)C1O (centres unmarked) [Compound 2, cyanidin 3-glucoside] |  | 163 µM |  |  | 37.0 ± 0.9 ^^ % | 20.9 ± 3.4% | 1.94 µM |  |  | 
Oc1cc(O)c2c(c1)O[C@H](c1ccc(O)c(O)c1)[C@H](O)[C@H]2c1c(O)cc2c(c1O)C[C@@H](O)[C@@H](c1ccc(O)c(O)c1)O2 [Compound 6, epi-(4β→6)-epi (B5)] | 5.2 ± 0.1 ^# µg/mL | 125 µM | 6.6 ± 0.7% |  |  |  | 9.51 µM |  |  | 
Oc1cc(O)c2c(c1)O[C@H](c1ccc(O)c(O)c1)[C@H](O)[C@H]2c1c(O)cc(O)c2c1O[C@H](c1ccc(O)c(O)c1)[C@H](O)C2 [Compound 5, procyanidin B2] | 4.7 ± 0.3 ^# µg/mL |  |  | 8.12 µM |  |  |  | 113 µM | 12.7 ± 2.8% | 
O=c1c(O)c(-c2ccc(O)c(O)c2)oc2cc(O)cc(O)c12 [Quercetin, quercetin, reference compound] | 3.0 ± 0.2 ^# µg/mL |  |  |  |  |  |  |  |  | 
OCC1OC(Oc2cc3c(O)cc(O)cc3[o+]c2-c2ccc(O)c(O)c2)C(O)C(O)C1O (centres unmarked) [Compound 1, cyanidin 3-galactoside] |  | 159 µM |  |  | 39.0 ± 2.9 ^^ % |  | 3.43 µM |  |  | 11.9 ± 4.4%
Oc1cc(O)c2cc(OC3OCC(O)C(O)C3O)c(-c3ccc(O)c(O)c3)[o+]c2c1 (centres unmarked) [Compound 3, cyanidin 3-arabinoside] |  | 140 µM |  |  | 40.0 ± 0.4 ^^ % | 39.1 ± 2.1% | 0.882 µM |  |  | 
